{"source": "patent US20250179066A1", "about": "“ZWITTERIONIC ANTIBACTERIAL COMPOUNDS” (Hoffmann-La Roche Inc., priority 2022, published 2025)"}
{"system": "Acinetobacter baumannii ATCC17961", "test": "Antimicrobial susceptibility testing: 90% growth inhibitory concentration (IC90) determination", "assay_type": "cell-based", "details": "Acinetobacter baumannii, ATCC17961, 16 h, 90% growth inhibitory concentration against Acinetobacter baumannii ATCC17961, Iso-Sensitest broth, OD 600 nm over 16 h; read-out: ATCC 17961 IC90", "summary_of_the_method": "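Twofold serial dilutions (e.g. 10 to 0.0195 μM final) in Iso-Sensitest broth inoculated at ~5×10^5 CFU/mL, incubated at 35±2° C. OD600 read every minute for 16 h; IC90 is the concentration inhibiting 90% of growth during logarithmic phase.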", "units": {"IC90": "nM"}}
{"smiles": "Cn1c(-c2cn(-c3cc4[nH]c(C(=O)N5CC6(CCOCC6)C5)cc4cn3)nc2C(F)(F)F)cnc1C(=O)Nc1ccc(C(=O)N2CCN(C(=O)[C@H]3CC[N@+](CC(=O)O)(CC4CNC4)CC3)CC2)c(Cl)c1", "note": "[Example 113, cis-2-[1-(azetidin-3-ylmethyl)-4-[4-[2-chloro-4-[[1-methyl-5-[1-[2-(7-oxa-2-azaspiro[3.5]nonane-2-carbonyl)-1H-pyrrolo[3,2-c]pyridin-6-yl]-3-(trifluoromethyl)pyrazol-4-yl]imidazole-2-carbonyl]amino]benzoyl]piperazine-1-carbonyl]piperidin-1-ium-1-yl]acetic acid. 1:1 2,2,2-trifluoroacetate]", "IC90": 707}
{"smiles": "Cn1c(-c2cn(-c3cc4[nH]c(C(=O)N5CCS(=N)(=O)CC5)cc4cn3)nc2C(F)(F)F)cnc1C(=O)Nc1ccc(C(=O)N2CCN(C(=O)[C@H]3CC[N@+](CC(=O)O)(CC4CNC4)CC3)CC2)c(Cl)c1", "note": "[Example 114, cis-2-[1-(azetidin-3-ylmethyl)-4-[4-[2-chloro-4-[[5-[1-[2-(1-imino-1-keto-1,4-thiazinane-4-carbonyl)-1H-pyrrolo[3,2-c]pyridin-6-yl]-3-(trifluoromethyl)pyrazol-4-yl]-1-methyl-imidazole-2-carbonyl]amino]benzoyl]piperazine-1-carbonyl]piperidin-1-ium-1-yl]acetic acid. 1:1 2,2,2-trifluoroacetate]", "IC90": 637}
{"smiles": "Cn1c(-c2cn(-c3cc4[nH]c(C(=O)NCCO)cc4cn3)nc2C(F)(F)F)cnc1C(=O)Nc1ccc(C(=O)N2CCN(C(=O)[C@H]3CC[N@+](CC(=O)O)(CC4CNC4)CC3)CC2)c(Cl)c1", "note": "[Example 115, cis-2-[1-(azetidin-3-ylmethyl)-4-[4-[2-chloro-4-[[5-[1-[2-(2-hydroxyethylcarbamoyl)-1H-pyrrolo[3,2-c]pyridin-6-yl]-3-(trifluoromethyl)pyrazol-4-yl]-1-methyl-imidazole-2-carbonyl]amino]benzoyl]piperazine-1-carbonyl]piperidin-1-ium-1-yl]acetic acid. 1:1 2,2,2-trifluoroacetate]", "IC90": 295}
{"smiles": "Cn1c(-c2cn(-c3cc4[nH]c(C(=O)N5CC6CNCC(C5)O6)cc4cn3)nc2C(F)(F)F)cnc1C(=O)Nc1ccc(C(=O)N2CCN(C(=O)[C@H]3CC[N@+](CC(=O)O)(CC4CNC4)CC3)CC2)c(Cl)c1", "note": "[Example 116, cis-2-[1-(azetidin-3-ylmethyl)-4-[4-[2-chloro-4-[[1-methyl-5-[1-[2-(9-oxa-3,7-diazabicyclo[3.3.1]nonane-3-carbonyl)-1H-pyrrolo[3,2-c]pyridin-6-yl]-3-(trifluoromethyl)pyrazol-4-yl]imidazole-2-carbonyl]amino]benzoyl]piperazine-1-carbonyl]piperidin-1-ium-1-yl]acetic acid. 1:1 2,2,2-trifluoroacetic acid. 1:1 2,2,2-trifluoroacetate]", "IC90": 213}
{"smiles": "Cn1c(-c2cn(-c3cc4[nH]c(C(=O)NCC(O)C(F)(F)F)cc4cn3)nc2C(F)(F)F)cnc1C(=O)Nc1ccc(C(=O)N2CCN(C(=O)[C@H]3CC[N@+](CC(=O)O)(CC4CNC4)CC3)CC2)c(Cl)c1", "note": "(stereo partly drawn) [Example 117, cis-2-[1-(azetidin-3-ylmethyl)-4-[4-[2-chloro-4-[[1-methyl-5-[1-[2-[(3,3,3-trifluoro-2-hydroxy-propyl)carbamoyl]-1H-pyrrolo[3,2-c]pyridin-6-yl]-3-(trifluoromethyl)pyrazol-4-yl]imidazole-2-carbonyl]amino]benzoyl]piperazine-1-carbonyl]piperidin-1-ium-1-yl]acetic acid. 1:1 2,2,2-trifluoroacetate]", "IC90": 215}
{"smiles": "Cn1c(-c2cn(-c3cc4[nH]c(C(=O)N5CCNCC5)cc4cn3)nc2C(F)(F)F)cnc1C(=O)Nc1ccc(C(=O)N2CCN(C(=O)[C@H]3CC[N@+](CC(=O)O)(CC4CNC4)CC3)CC2)c(Cl)c1", "note": "[Example 118, cis-2-[1-(azetidin-3-ylmethyl)-4-[4-[2-chloro-4-[[1-methyl-5-[1-[2-(piperazine-1-carbonyl)-1H-pyrrolo[3,2-c]pyridin-6-yl]-3-(trifluoromethyl)pyrazol-4-yl]imidazole-2-carbonyl]amino]benzoyl]piperazine-1-carbonyl]piperidin-1-ium-1-yl]acetic acid. 1:1 2,2,2-trifluoroacetate]", "IC90": 213}
{"smiles": "Cn1c(-c2cn(-c3cc4[nH]c(C(=O)N5CCOC(F)(F)C5)cc4cn3)nc2C(F)(F)F)cnc1C(=O)Nc1ccc(C(=O)N2CCN(C(=O)[C@H]3CC[N@+](CC(=O)O)(CC4CNC4)CC3)CC2)c(Cl)c1", "note": "[Example 119, cis-2-[1-(azetidin-3-ylmethyl)-4-[4-[2-chloro-4-[[5-[1-[2-(2,2-difluoromorpholine-4-carbonyl)-1H-pyrrolo[3,2-c]pyridin-6-yl]-3-(trifluoromethyl)pyrazol-4-yl]-1-methyl-imidazole-2-carbonyl]amino]benzoyl]piperazine-1-carbonyl]piperidin-1-ium-1-yl]acetic acid. 1:1 2,2,2-trifluoroacetate]", "IC90": 236}
{"smiles": "Cn1c(-c2cn(-c3cc4[nH]c(C(=O)NC5CCNC5=O)cc4cn3)nc2C(F)(F)F)cnc1C(=O)Nc1ccc(C(=O)N2CCN(C(=O)[C@H]3CC[N@+](CC(=O)O)(CC4CNC4)CC3)CC2)c(Cl)c1", "note": "(stereo partly drawn) [Example 120, cis-2-[1-(azetidin-3-ylmethyl)-4-[4-[2-chloro-4-[[5-[1-[2-[(2-ketopyrrolidin-3-yl)carbamoyl]-1H-pyrrolo[3,2-c]pyridin-6-yl]-3-(trifluoromethyl)pyrazol-4-yl]-1-methyl-imidazole-2-carbonyl]amino]benzoyl]piperazine-1-carbonyl]piperidin-1-ium-1-yl]acetic acid. 1:1 2,2,2-trifluoroacetate]", "IC90": 527}
{"smiles": "Cn1c(-c2cn(-c3cc4[nH]c(C(=O)N5CCO[C@]6(CCOC6)C5)cc4cn3)nc2C(F)(F)F)cnc1C(=O)Nc1ccc(C(=O)N2CCN(C(=O)[C@H]3CC[N@+](CC(=O)O)(CC4CNC4)CC3)CC2)c(Cl)c1", "note": "[Example 121, cis-2-[1-(azetidin-3-ylmethyl)-4-[4-[2-chloro-4-[[5-[1-[2-[(5R)-2,6-dioxa-9-azaspiro[4.5]decane-9-carbonyl]-1H-pyrrolo[3,2-c]pyridin-6-yl]-3-(trifluoromethyl)pyrazol-4-yl]-1-methyl-imidazole-2-carbonyl]amino]benzoyl]piperazine-1-carbonyl]piperidin-1-ium-1-yl]acetic acid. 1:1 2,2,2-trifluoroacetate]", "IC90": 375}
{"smiles": "Cn1c(-c2cn(-c3cc4[nH]c(C(=O)N5CCSCC5)cc4cn3)nc2C(F)(F)F)cnc1C(=O)Nc1ccc(C(=O)N2CCN(C(=O)[C@H]3CC[N@+](CC(=O)O)(CC4CNC4)CC3)CC2)c(Cl)c1", "note": "[Example 122, cis-2-[1-(azetidin-3-ylmethyl)-4-[4-[2-chloro-4-[[1-methyl-5-[1-[2-(thiomorpholine-4-carbonyl)-1H-pyrrolo[3,2-c]pyridin-6-yl]-3-(trifluoromethyl)pyrazol-4-yl]imidazole-2-carbonyl]amino]benzoyl]piperazine-1-carbonyl]piperidin-1-ium-1-yl]acetic acid. 1:1 2,2,2-trifluoroacetate]", "IC90": 235}
